Data: US8541418B2, “Inhibitors of polo-like kinase” (Elan Pharmaceutical, Inc., priority 2009, dated 2013)

Columns and labels:
Assay type in all cases: biochemical
[1] = target: PLK2 (Homo sapiens, UniProt Q9NYY3); assay: PLK TR-FRET peptide assay, PLK2; details: PLK TR-FRET peptide assay, GST-PLK2, 60 min reaction; read-out: Plk2 IC50
[2] = target: PLK3 (Homo sapiens, UniProt Q9H4B4); assay: PLK TR-FRET peptide assay, PLK3; details: GST-PLK3, 15 min reaction, read-out: Plk3 IC50
[3] = target: PLK1 (Homo sapiens, UniProt P53350); assay: PLK TR-FRET peptide assay, PLK1; details: GST-PLK1, 60 min reaction
PLK1, sequence (P53350 whole entry): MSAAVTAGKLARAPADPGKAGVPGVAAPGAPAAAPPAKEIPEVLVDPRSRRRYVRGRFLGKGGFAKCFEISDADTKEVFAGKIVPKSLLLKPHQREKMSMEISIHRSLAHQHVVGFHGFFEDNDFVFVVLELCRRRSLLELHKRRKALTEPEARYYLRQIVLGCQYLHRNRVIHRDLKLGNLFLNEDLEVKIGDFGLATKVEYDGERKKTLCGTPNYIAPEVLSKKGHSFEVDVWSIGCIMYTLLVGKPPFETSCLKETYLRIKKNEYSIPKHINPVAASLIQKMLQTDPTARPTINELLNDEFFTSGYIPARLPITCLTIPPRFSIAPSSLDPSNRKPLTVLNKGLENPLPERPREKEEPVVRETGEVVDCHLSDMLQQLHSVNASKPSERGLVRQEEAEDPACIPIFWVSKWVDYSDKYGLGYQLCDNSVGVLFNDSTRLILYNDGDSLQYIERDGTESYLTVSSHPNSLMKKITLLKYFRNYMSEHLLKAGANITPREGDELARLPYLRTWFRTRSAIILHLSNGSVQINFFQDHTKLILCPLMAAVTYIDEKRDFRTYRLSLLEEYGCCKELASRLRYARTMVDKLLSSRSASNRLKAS

PLK3, sequence (Q9H4B4 whole entry): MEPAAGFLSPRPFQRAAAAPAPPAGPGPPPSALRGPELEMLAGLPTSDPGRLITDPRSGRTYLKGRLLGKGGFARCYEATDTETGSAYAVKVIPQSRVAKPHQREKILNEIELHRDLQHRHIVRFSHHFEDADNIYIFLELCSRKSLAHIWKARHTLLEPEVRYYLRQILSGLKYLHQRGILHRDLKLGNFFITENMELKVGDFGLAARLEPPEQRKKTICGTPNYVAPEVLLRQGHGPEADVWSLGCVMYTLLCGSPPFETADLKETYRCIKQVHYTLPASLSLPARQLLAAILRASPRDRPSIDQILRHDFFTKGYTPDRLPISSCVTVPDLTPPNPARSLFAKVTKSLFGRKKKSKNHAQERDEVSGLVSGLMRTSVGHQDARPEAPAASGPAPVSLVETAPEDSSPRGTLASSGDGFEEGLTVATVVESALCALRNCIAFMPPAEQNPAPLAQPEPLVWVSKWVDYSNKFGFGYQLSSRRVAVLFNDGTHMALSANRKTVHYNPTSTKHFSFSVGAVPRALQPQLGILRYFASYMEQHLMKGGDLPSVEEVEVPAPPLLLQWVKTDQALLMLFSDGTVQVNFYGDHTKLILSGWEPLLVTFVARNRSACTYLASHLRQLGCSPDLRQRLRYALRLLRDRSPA
PLK2, sequence (Q9NYY3 whole entry): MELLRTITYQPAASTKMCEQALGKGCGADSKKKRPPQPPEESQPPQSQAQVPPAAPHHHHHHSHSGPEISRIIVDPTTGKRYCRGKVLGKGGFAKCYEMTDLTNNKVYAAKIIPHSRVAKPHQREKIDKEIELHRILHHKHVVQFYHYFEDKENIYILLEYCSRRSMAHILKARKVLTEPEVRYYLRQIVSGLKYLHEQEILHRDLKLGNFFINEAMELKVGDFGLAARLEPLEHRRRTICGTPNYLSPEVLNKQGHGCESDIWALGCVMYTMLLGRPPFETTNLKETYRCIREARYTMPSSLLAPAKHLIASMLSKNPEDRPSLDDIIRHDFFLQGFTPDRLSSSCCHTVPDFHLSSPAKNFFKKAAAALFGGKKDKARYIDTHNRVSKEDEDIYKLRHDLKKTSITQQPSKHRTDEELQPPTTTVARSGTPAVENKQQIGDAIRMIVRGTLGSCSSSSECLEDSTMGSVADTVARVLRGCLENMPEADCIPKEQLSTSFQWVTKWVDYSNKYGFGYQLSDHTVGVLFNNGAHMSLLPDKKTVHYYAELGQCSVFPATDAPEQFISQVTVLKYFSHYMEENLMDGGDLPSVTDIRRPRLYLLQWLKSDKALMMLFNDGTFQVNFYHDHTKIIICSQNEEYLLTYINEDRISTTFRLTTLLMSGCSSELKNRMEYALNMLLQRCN

| SMILES | IC50 [1] | IC50 [2] | IC50 [3] |
| --- | --- | --- | --- |
| CC[C@@H]1C(=O)N(C)c2cnc(-n3ccnc3-c3ccccc3)nc2N1C1CCC1 [Example 47, (R)-8-cyclobutyl-7-ethyl-5-methyl-2-(2-phenyl-1H-imidazol-1-yl)-7,8-dihydropteridin-6(5H)-one] | < 1 µM | 1 to 10 µM | < 1 µM |
| CC[C@@H]1C(=O)N(C)c2cnc(-n3ccnc3-c3ccc(F)c(F)c3)nc2N1C1CCC1 [Example 48, (R)-8-cyclobutyl-2-(2-(3,4-difluorophenyl)-1H-imidazol-1-yl)-7-ethyl-5-methyl-7,8-dihydropteridin-6(5H)-one] | < 1 µM | 10 to 50 µM | 1 to 10 µM |
| CC[C@@H]1C(=O)N(C)c2cnc(-c3cccc(NS(C)(=O)=O)c3)nc2N1C1CCCC1 [Example 53, (R)—N-(3-(8-cyclopentyl-7-ethyl-5-methyl-6-oxo-5,6,7,8-tetrahydropteridin-2-yl)phenyl)methanesulfonamide] | < 1 µM | 1 to 10 µM | 1 to 10 µM |
| CC[C@@H]1C(=O)N(C)c2cnc(-c3cccc(C(=O)N(C)C)c3)nc2N1C1CCCC1 [Example 57, (R)-3-(8-cyclopentyl-7-ethyl-5-methyl-6-oxo-5,6,7,8-tetrahydropteridin-2-yl)-N,N-dimethylbenzamide] | 1 to 10 µM | > 50 µM | 1 to 10 µM |
| CC[C@@H]1C(=O)N(C)c2cnc(-n3cnc(-c4nccs4)c3)nc2N1C1CCCC1 [Example 60, (R)-8-cyclopentyl-7-ethyl-5-methyl-2-(4-(thiazol-2-yl)-1H-imidazol-1-yl)-7,8-dihydropteridin-6(5H)-one] | < 1 µM | 1 to 10 µM | < 1 µM |
| CC[C@@H]1C(=O)N(C)c2cnc(-c3ccc(S(C)(=O)=O)cc3)nc2N1C1CCCC1 [Example 64, (R)-8-cyclopentyl-7-ethyl-5-methyl-2-(4-(methylsulfonyl)phenyl)-7,8-dihydropteridin-6(5H)-one] | < 1 µM | 1 to 10 µM | < 1 µM |
| CC[C@@H]1C(=O)N(C)c2cnc(-c3cccc(C(N)=O)c3)nc2N1C1CCCC1 [Example 66, (R)-3-(8-cyclopentyl-7-ethyl-5-methyl-6-oxo-5,6,7,8-tetrahydropteridin-2-yl)benzamide] | < 1 µM | 1 to 10 µM | < 1 µM |
| CC[C@@H]1C(=O)N(C)c2cnc(-n3ccnc3-c3cccnc3)nc2N1C1CCCC1 [Example 67, (R)-8-cyclopentyl-7-ethyl-5-methyl-2-(2-(pyridin-3-yl)-1H-imidazol-1-yl)-7,8-dihydropteridin-6(5H)-one] | < 1 µM | < 1 µM | < 1 µM |
| CC[C@@H]1C(=O)N(C)c2cnc(-c3cccc(S(C)(=O)=O)c3)nc2N1C1CCCC1 [Example 71, (R)-8-cyclopentyl-7-ethyl-5-methyl-2-(3-(methylsulfonyl)phenyl)-7,8-dihydropteridin-6(5H)-one] | 1 to 10 µM | 10 to 50 µM | 1 to 10 µM |
| CC[C@@H]1C(=O)N(C)c2cnc(-n3ccnc3-c3nccs3)nc2N1C1CCCC1 [Example 74, (R)-8-cyclopentyl-7-ethyl-5-methyl-2-(2-(thiazol-2-yl)-1H-imidazol-1-yl)-7,8-dihydropteridin-6(5H)-one] | < 1 µM | < 1 µM | < 1 µM |
| CC[C@@H]1C(=O)N(C)c2cnc(-n3ccnc3N3CCCC3=O)nc2N1C1CCCC1 [Example 82, (R)-8-cyclopentyl-7-ethyl-5-methyl-2-(2-(2-oxopyrrolidin-1-yl)-1H-imidazol-1-yl)-7,8-dihydropteridin-6(5H)-one] | 1 to 10 µM | 10 to 50 µM | 1 to 10 µM |
| CC[C@@H]1C(=O)N(C)c2cnc(-n3ccnc3C3=CCOCC3)nc2N1C1CCCC1 [Example 84, (R)-8-cyclopentyl-2-(2-(3,6-dihydro-2H-pyran-4-yl)-1H-imidazol-1-yl)-7-ethyl-5-methyl-7,8-dihydropteridin-6(5H)-one] | < 1 µM | 10 to 50 µM | 1 to 10 µM |
| CC[C@@H]1C(=O)N(C)c2cnc(-n3ccnc3N3CCN(C)CC3)nc2N1C1CCCC1 [Example 88, (R)-8-cyclopentyl-7-ethyl-5-methyl-2-(2-(4-methylpiperazin-1-yl)-1H-imidazol-1-yl)-7,8-dihydropteridin-6(5H)-one] | 10 to 50 µM | > 50 µM | 10 to 50 µM |
| CC[C@@H]1C(=O)N(C)c2cnc(-n3ccnc3-n3cccn3)nc2N1C1CCCC1 [Example 89, (R)-2-(2-(1H-pyrazol-1-yl)-1H-imidazol-1-yl)-8-cyclopentyl-7-ethyl-5-methyl-7,8-dihydropteridin-6(5H)-one] | < 1 µM | < 1 µM | < 1 µM |
| CC[C@@H]1C(=O)N(C)c2cnc(-c3ccncc3N)nc2N1C1CCCC1 [Example 91, (R)-2-(3-aminopyridin-4-yl)-8-cyclopentyl-7-ethyl-5-methyl-7,8-dihydropteridin-6(5H)-one] | < 1 µM | 1 to 10 µM | < 1 µM |
| CC[C@@H]1C(=O)N(C)c2cnc(-c3ccncc3N)nc2N1C(C)C [Example 93, (R)-2-(3-aminopyridin-4-yl)-7-ethyl-8-isopropyl-5-methyl-7,8-dihydropteridin-6(5H)-one] | < 1 µM | > 50 µM | 1 to 10 µM |
| CC[C@@H]1C(=O)N(C)c2cnc(-c3ccncc3-c3ccccc3)nc2N1C1CCC1 [Example 96, (R)-8-cyclobutyl-7-ethyl-5-methyl-2-(3-phenylpyridin-4-yl)-7,8-dihydropteridin-6(5H)-one] | < 1 µM | < 1 µM | < 1 µM |
| CC[C@@H]1C(=O)N(C)c2cnc(-c3ccccc3C(F)(F)F)nc2N1C1CCC1 [Example 98, (R)-8-cyclobutyl-7-ethyl-5-methyl-2-(2-(trifluoromethyl)phenyl)-7,8-dihydropteridin-6(5H)-one] | 1 to 10 µM | > 50 µM | 10 to 50 µM |
| CC[C@@H]1C(=O)N(C)c2cnc(-c3ccncc3NC(=O)c3ccccc3)nc2N1C1CCCC1 [Example 102, (R)—N-(4-(8-cyclopentyl-7-ethyl-5-methyl-6-oxo-5,6,7,8-tetrahydropteridin-2-yl)pyridin-3-yl)benzamide] | < 1 µM | 1 to 10 µM | 1 to 10 µM |

Next, values leading:

| IC50 [1] | IC50 [2] | IC50 [3] | SMILES |
| --- | --- | --- | --- |
| < 1 µM | 1 to 10 µM | < 1 µM | CC[C@@H]1C(=O)N(C)c2cnc(-n3ccnc3-c3ccccc3F)nc2N1C1CCC1 [Example 49, (R)-8-cyclobutyl-7-ethyl-2-(2-(2-fluorophenyl)-1H-imidazol-1-yl)-5-methyl-7,8-dihydropteridin-6(5H)-one] |
| < 1 µM | 1 to 10 µM | 1 to 10 µM | CC[C@@H]1C(=O)N(C)c2cnc(-n3ccnc3-c3ccc(F)cc3)nc2N1C1CCC1 [Example 50, (R)-8-cyclobutyl-7-ethyl-2-(2-(4-fluorophenyl)-1H-imidazol-1-yl)-5-methyl-7,8-dihydropteridin-6(5H)-one] |
| 10 to 50 µM | > 50 µM | > 50 µM | CC[C@@H]1C(=O)N(C)c2cnc(-c3cccc(OCc4ccccc4)c3)nc2N1C1CCCC1 [Example 72, (R)-2-(3-(benzyloxy)phenyl)-8-cyclopentyl-7-ethyl-5-methyl-7,8-dihydropteridin-6(5H)-one] |
| < 1 µM | 10 to 50 µM | 1 to 10 µM | CC[C@@H]1C(=O)N(C)c2cnc(-n3ccnc3Cc3ccccc3)nc2N1C1CCCC1 [Example 75, (R)-2-(2-benzyl-1H-imidazol-1-yl)-8-cyclopentyl-7-ethyl-5-methyl-7,8-dihydropteridin-6(5H)-one] |
| < 1 µM | < 1 µM | < 1 µM | CC[C@@H]1C(=O)N(C)c2cnc(-c3ccncc3-c3ccccc3)nc2N1C1CCCC1 [Example 85, (R)-8-cyclopentyl-7-ethyl-5-methyl-2-(3-phenylpyridin-4-yl)-7,8-dihydropteridin-6(5H)-one] |
| 1 to 10 µM | > 50 µM | 10 to 50 µM | CC[C@@H]1C(=O)N(C)c2cnc(-n3ccnc3N3CCCC3)nc2N1C1CCCC1 [Example 86, (R)-8-cyclopentyl-7-ethyl-5-methyl-2-(2-(pyrrolidin-1-yl)-1H-imidazol-1-yl)-7,8-dihydropteridin-6(5H)-one] |
| 1 to 10 µM | > 50 µM | 1 to 10 µM | CC[C@@H]1C(=O)N(C)c2cnc(-n3ccnc3N3CCOCC3)nc2N1C1CCCC1 [Example 87, (R)-8-cyclopentyl-7-ethyl-5-methyl-2-(2-morpholino-1H-imidazol-1-yl)-7,8-dihydropteridin-6(5H)-one] |
| 1 to 10 µM | 10 to 50 µM | 1 to 10 µM | CC[C@@H]1C(=O)N(C)c2cnc(-n3ccnc3C3CCOCC3)nc2N1C1CCCC1 [Example 90, (R)-8-cyclopentyl-7-ethyl-5-methyl-2-(2-(tetrahydro-2H-pyran-4-yl)-1H-imidazol-1-yl)-7,8-dihydropteridin-6(5H)-one] |
| 1 to 10 µM | > 50 µM | 10 to 50 µM | CC[C@@H]1C(=O)N(C)c2cnc(-c3ccncc3NC(=O)OC(C)(C)C)nc2N1C1CCCC1 [Example 92, (R)-tert-butyl 4-(8-cyclopentyl-7-ethyl-5-methyl-6-oxo-5,6,7,8-tetrahydropteridin-2-yl)pyridin-3-ylcarbamate] |
| 1 to 10 µM | > 50 µM | 10 to 50 µM | CC[C@@H]1C(=O)N(C)c2cnc(-c3ccncc3NC(=O)OC(C)(C)C)nc2N1C(C)C [Example 94, (R)-tert-butyl 4-(7-ethyl-8-isopropyl-5-methyl-6-oxo-5,6,7,8-tetrahydropteridin-2-yl)pyridin-3-ylcarbamate] |
| < 1 µM | < 1 µM | < 1 µM | CC[C@@H]1C(=O)N(C)c2cnc(-n3ccnc3-c3cncc(F)c3)nc2N1C1CCCC1 [Example 99, (R)-8-cyclopentyl-7-ethyl-2-(2-(5-fluoropyridin-3-yl)-1H-imidazol-1-yl)-5-methyl-7,8-dihydropteridin-6(5H)-one] |
